Laboratory results reported in ChEMBL document CHEMBL5465560, “Selectivity Literature for EUbOPEN Chemogenomic Library” (2024).

Experiments:
[1] = target: RAC-alpha serine/threonine-protein kinase (Homo sapiens, UniProt P31749); assay: Selectivity interaction (KinomeScan (DiscoverX)) EUB0000092b AKT1; settings: at 10 µM
[2] = target: Serine/threonine-protein kinase PLK2 (Homo sapiens, UniProt Q9NYY3); assay: Selectivity interaction (ProQinase) EUB0000171b PLK2
[3] = target: T1, Dual specificity mitogen-activated protein kinase kinase 6 (Homo sapiens) (UniProt P52564); assay: Selectivity interaction (Kinase panel (DSF assay)) EUB0001559a MAP2K6
T1 sequence (whole entry): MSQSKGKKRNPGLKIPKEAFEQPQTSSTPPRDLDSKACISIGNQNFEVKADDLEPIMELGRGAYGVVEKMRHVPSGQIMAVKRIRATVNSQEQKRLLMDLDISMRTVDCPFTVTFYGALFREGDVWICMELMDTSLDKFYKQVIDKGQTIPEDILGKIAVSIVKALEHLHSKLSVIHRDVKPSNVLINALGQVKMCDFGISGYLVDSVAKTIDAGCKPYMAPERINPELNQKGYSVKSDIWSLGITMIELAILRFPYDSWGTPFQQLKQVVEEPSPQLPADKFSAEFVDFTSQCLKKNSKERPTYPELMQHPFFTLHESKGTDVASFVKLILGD

[4] = target: T2, Mitogen-activated protein kinase kinase kinase 2 (Homo sapiens) (UniProt Q9Y2U5); assay: Selectivity interaction (KinomeScan (DiscoverX)) EUB0000666a MAP3K2; settings: at 10 µM
T2 sequence (whole entry): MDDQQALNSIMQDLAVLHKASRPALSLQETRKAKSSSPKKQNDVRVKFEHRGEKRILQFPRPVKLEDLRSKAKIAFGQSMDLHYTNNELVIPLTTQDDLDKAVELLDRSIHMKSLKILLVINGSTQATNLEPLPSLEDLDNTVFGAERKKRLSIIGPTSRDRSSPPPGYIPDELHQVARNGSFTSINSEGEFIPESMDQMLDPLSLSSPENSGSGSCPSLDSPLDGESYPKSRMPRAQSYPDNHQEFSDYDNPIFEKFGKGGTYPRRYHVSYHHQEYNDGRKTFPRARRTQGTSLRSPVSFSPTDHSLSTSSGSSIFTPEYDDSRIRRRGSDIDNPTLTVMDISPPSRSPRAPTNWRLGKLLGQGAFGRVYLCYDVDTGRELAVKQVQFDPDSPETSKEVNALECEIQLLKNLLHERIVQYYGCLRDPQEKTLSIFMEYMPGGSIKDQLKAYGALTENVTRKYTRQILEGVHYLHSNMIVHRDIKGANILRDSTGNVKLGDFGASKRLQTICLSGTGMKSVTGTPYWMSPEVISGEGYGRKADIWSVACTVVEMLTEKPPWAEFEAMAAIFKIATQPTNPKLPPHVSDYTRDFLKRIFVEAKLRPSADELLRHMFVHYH

[5] = test system: PI3-kinase p110-alpha/p85-alpha (Homo sapiens), P27986+P42336 [E545K]; assay: Selectivity interaction (Adapta Assay) EUB0001632a PIK3CA; type: protein-complex assay; settings: at 10 µM
[6] = target: T3, Tyrosine-protein kinase Mer (Homo sapiens) (UniProt Q12866); assay: Selectivity interaction (Kinase screening (Nanosyn)) EUB0000604a MERTK
T3 sequence (whole entry): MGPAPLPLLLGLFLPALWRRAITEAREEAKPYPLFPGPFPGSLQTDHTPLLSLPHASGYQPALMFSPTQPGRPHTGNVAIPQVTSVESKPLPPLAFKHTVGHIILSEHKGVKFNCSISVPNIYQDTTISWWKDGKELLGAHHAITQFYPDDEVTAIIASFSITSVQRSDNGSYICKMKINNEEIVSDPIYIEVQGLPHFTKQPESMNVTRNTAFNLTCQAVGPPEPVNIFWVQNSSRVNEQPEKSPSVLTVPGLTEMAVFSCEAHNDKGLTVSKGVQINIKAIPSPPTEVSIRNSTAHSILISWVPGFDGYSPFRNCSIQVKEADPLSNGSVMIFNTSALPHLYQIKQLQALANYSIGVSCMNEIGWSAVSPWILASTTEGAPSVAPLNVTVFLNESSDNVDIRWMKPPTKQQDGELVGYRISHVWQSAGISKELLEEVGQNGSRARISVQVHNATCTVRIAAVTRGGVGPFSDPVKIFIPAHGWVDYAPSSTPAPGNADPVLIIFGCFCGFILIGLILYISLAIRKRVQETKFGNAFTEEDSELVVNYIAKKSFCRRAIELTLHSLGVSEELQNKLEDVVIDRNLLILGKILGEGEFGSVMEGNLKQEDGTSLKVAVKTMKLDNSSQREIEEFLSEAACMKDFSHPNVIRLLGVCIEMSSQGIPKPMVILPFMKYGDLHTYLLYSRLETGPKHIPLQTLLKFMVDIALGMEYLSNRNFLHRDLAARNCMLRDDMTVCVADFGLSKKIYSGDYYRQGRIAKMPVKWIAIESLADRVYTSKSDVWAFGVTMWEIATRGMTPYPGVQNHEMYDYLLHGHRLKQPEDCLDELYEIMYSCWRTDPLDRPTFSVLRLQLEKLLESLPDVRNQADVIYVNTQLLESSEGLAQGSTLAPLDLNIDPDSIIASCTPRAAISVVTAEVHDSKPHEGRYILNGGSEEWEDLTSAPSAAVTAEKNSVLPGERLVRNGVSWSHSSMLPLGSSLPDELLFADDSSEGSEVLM

[7] = target: Myosin light chain kinase, smooth muscle (Homo sapiens, UniProt Q15746); assay: Selectivity interaction (ActivX KiNativ screen (ex vivo kinase selectivity in human PBMCs)) EUB0001619a MYLK; type: cell-based; settings: PBMC, at 1 µM
Myosin light chain kinase, smooth muscle, sequence (Q15746 whole entry): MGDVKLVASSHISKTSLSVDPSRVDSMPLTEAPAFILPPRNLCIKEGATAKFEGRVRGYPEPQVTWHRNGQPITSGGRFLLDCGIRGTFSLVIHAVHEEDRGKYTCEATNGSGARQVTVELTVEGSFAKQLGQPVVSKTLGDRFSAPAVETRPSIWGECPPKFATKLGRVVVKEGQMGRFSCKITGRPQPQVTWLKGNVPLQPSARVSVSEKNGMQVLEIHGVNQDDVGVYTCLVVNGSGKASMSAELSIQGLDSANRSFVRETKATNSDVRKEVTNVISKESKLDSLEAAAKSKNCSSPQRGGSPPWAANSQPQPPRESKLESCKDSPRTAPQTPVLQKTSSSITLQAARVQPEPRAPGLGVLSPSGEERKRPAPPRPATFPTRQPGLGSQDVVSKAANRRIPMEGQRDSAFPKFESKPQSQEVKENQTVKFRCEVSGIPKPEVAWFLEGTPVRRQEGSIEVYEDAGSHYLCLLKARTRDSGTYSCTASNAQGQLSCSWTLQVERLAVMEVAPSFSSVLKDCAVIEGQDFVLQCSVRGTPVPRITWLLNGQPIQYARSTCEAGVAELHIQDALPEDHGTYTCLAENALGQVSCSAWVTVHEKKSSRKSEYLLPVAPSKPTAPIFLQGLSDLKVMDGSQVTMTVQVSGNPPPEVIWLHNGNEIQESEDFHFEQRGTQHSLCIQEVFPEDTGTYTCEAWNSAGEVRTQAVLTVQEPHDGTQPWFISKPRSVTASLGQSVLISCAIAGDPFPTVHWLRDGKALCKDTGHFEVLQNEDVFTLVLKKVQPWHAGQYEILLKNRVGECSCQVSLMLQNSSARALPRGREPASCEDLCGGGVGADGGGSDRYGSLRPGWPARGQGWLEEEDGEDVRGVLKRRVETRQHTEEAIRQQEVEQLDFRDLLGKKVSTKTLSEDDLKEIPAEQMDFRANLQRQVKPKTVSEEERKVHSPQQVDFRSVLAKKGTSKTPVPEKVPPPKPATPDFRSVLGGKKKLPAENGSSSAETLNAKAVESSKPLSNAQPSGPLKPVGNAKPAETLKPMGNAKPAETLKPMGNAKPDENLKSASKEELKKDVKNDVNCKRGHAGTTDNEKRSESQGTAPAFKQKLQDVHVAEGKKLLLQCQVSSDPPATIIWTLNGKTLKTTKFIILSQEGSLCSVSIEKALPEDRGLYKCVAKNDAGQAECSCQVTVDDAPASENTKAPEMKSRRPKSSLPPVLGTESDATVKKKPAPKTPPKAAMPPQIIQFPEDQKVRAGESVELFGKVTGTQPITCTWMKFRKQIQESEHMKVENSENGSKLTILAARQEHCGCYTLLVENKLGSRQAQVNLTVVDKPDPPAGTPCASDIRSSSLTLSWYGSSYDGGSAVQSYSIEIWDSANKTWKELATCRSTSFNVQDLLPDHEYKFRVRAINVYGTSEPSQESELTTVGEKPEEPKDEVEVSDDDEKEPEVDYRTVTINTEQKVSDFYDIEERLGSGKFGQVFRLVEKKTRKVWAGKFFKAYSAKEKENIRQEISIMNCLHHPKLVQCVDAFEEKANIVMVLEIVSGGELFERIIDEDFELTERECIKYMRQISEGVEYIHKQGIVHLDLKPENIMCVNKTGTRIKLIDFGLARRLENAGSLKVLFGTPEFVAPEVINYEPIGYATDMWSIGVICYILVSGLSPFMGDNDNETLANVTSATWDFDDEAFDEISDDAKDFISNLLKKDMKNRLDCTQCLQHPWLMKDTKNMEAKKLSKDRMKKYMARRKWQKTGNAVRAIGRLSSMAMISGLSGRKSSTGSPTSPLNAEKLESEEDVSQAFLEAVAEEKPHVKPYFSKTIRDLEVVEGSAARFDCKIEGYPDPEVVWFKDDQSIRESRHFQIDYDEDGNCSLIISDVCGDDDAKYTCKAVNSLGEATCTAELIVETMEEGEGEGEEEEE

Serine/threonine-protein kinase PLK2, sequence (Q9NYY3 whole entry, looked up): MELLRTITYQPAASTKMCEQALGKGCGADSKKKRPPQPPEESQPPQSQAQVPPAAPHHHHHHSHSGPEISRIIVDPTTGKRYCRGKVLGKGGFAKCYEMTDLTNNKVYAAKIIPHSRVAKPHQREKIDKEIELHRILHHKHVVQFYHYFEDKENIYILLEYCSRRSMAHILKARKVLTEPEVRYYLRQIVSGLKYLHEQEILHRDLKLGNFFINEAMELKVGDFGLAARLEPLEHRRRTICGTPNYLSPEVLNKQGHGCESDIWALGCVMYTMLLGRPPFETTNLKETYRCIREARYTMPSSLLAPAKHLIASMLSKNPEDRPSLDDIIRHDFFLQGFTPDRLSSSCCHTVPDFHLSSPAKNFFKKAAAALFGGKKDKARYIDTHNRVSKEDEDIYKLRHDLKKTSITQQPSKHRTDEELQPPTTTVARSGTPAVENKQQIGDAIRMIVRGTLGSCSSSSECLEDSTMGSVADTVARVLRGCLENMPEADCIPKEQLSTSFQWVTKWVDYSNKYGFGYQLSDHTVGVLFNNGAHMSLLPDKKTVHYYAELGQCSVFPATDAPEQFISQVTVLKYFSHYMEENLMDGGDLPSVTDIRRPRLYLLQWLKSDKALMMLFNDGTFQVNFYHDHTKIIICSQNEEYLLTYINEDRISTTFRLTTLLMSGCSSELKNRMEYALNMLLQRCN
RAC-alpha serine/threonine-protein kinase, sequence (P31749 whole entry): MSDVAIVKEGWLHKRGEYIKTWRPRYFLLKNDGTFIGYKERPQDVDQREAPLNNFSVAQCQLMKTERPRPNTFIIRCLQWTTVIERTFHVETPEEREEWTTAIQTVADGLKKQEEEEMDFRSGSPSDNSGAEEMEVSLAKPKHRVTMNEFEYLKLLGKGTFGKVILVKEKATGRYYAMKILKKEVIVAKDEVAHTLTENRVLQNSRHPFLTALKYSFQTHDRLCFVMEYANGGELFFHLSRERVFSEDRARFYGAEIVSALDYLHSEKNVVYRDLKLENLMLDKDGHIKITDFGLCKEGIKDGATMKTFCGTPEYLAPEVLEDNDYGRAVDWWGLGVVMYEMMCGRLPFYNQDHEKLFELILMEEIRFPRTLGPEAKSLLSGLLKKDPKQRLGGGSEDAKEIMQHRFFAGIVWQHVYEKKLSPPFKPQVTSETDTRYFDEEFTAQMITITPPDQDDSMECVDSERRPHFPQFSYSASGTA

CCC(=O)N1CCN(c2ccc(-n3c(=O)ccc4cnc5ccc(-c6cnc7ccccc7c6)cc5c43)cc2C(F)(F)F)CC1
% of control [1]: 91%

C=CC(=O)Nc1cccc(C(=O)Nc2ccc(Nc3cc(-c4[nH]c(SC)nc4C)ccn3)cc2)c1
% of control ([2]; at 1 µM): 86%
% of control ([2]; at 5 µM): 81%

CN(C(=O)c1cnn2cccnc12)c1cc2c(cc1N1CCOCC1)C(=O)N(C[C@@H](F)C(C)(C)O)C2
dTM [3]: 0 K

O=C(NOC[C@H](O)CO)c1ccc(F)c(F)c1Nc1ccc(I)cc1F
% of control [4]: 100%

Cn1cc(-n2cnc3c(NCc4nc5cc(Cl)c(Cl)cc5[nH]4)nc(N4CCOCC4)nc32)cn1
% of inhibition [5]: 20%

Cc1cnc(Nc2ccc(F)cc2Cl)nc1-c1c[nH]c(C(=O)N[C@H](CO)c2cccc(Cl)c2)c1
% of inhibition [6]: 9%

N#Cc1cccc(-c2c[nH]c3ncnc(N4CCOCC4)c23)c1
% of inhibition [7]: 13%
